In patent US20170210751A1, “PRMT5 INHIBITORS AND USES THEREOF” (Epizyme, Inc., priority 2014, published 2017) one finds EC50 data, which are given here for 30 molecules.

In the assay the test system is Symmetric di-Methyl Arginine in Z-138 cells. The assay is described as follows: Z-138 Methylation Assay (In Cell Western for symmetric di-methyl arginine). Type of assay: cell-based. Conditions: Homo sapiens, 96 hours incubation, symmetric di-methyl arginine normalised to DNA content, read-out: ICW EC50. The text has this:
Z-138 suspension cells were purchased from ATCC (American Type Culture Collection, Manassas, Va.). RPMI/Glutamax medium, penicillin-streptomycin, heat inactivated fetal bovine serum, and D-PBS were purchased from Life Technologies, Grand Island, N.Y., USA. Odyssey blocking buffer, 800CW goat anti-rabbit IgG (H+L) antibody, and Licor Odyssey infrared scanner were purchased from Licor Biosciences, Lincoln, Nebr., USA. Symmetric di-methyl arginine antibody was purchased from EMD Millipore, Billerica, Mass., USA. 16% Paraformaldehyde was purchased from Electron Microscopy Sciences, Hatfield, Pa., USA.
Z-138 suspension cells were maintained in growth medium (RPMI 1640 supplemented with 10% v/v heat inactivated fetal bovine serum and 100 units/mL penicillin-streptomycin) and cultured at 37° C. under 5% CO2.
Cell Treatment, In Cell Western (ICW) for detection of Symmetric di-Methyl Arginine and DNA content.
Z-138 cells were seeded in assay medium at a concentration of 50,000 cells per mL to a 384-well cell culture plate with 50 μL per well. Compound (100 nL) from 384 well source plates was added directly to 384 well cell plate. Plates were incubated at 37° C., 5% CO2 for 96 hours. After four days of incubation, 40 μL of cells from incubated plates were added to poly-D-lysine coated 384 well culture plates (BD Biosciences 356697). Plates were incubated at room temperature for 30 minutes then incubated at 37° C., 5% CO2 for 5 hours. After the incubation, 40 μL per well of 8% paraformaldehyde in PBS (16% paraformaldahyde was diluted to 8% in PBS) was added to each plate and incubated for 30 minutes. Plates were transferred to a Biotek 405 plate washer and washed 5 times with 100 μL per well of wash buffer (IX PBS with 0.1% Triton X-100 (v/v)). Next […] well of Odyssey blocking buffer were added to each plate and incubated 1 hour at room temperature. Blocking buffer was removed and 20 μL per well of primary antibody was added (symmetric di-methyl arginine diluted 1:100 in Odyssey buffer with 0.1% Tween 20 (v/v)) and plates were incubated overnight (16 hours) at 4° C. Plates were washed 5 times with 100 μL per well of wash buffer. Next 20 μL per well of secondary antibody was added (1:200 800CW goat anti-rabbit IgG (H+L) antibody, 1:1000 DRAQ5 (Biostatus limited) in Odyssey buffer with 0.1% Tween 20 (v/v)) and incubated for 1 hour at room temperature. The plates were washed 5 times with 100 μL per well wash buffer then 1 time with 100 μL per well of water. Plates were allowed to dry at room temperature then imaged on the Licor Odyssey machine which measures integrated intensity at 700 nm and 800 nm wavelengths. Both 700 and 800 channels were scanned.
First, the ratio for each well was determined by:
Each plate included fourteen control wells of DMSO only treatment (minimum inhibition) as well as fourteen control wells for maximum inhibition treated with 3 μM of a reference compound (Background wells). The average of the ratio values for each control type was calculated and used to determine the percent inhibition for each test well in the plate. Reference compound was serially diluted three-fold in DMSO for a total of nine test concentrations, beginning at 3 μM. Percent inhibition was determined and IC50 curves were generated using triplicate wells per concentration of compound.
Take `CC(=O)N1CCC(Nc2cc(C(=O)NC[C@H](O)CN3CCc4ncn(C)c4C3)ccn2)CC1` [Compound 3-24, (S)-2-((1-acetylpiperidin-4-yl)amino)-N-(2-hydroxy-3-(3-methyl-6,7-dihydro-3H-imidazo[4,5-c]pyridin-5(4H)-yl)propyl)isonicotinamide]: the EC50 was more than 1000 nM. Turning to `CC(=O)N1CCC(Nc2cc(C(=O)NC[C@H](O)CN3CCc4c(cnn4C)C3)ncn2)CC1` [Compound 3-56], the EC50 is more than 1000 nM.

In the case of `O=C(COc1cccc2cccnc12)NCC(O)CN1CCc2ccncc2C1` (stereo not drawn) [Compound 2-8, N-[2-hydroxy-3-(1,2,3,4-tetrahydro-2,7-naphthyridin-2-yl)propyl]-2-(quinolin-8-yloxy)acetamide], the EC50 was more than 1000 nM. With `CC(=O)N1CC(Nc2cc(C(=O)NC[C@H](O)CN3CCc4scc(C)c4C3)ncn2)C1` [Compound 1-12, (S)-6-((1-acetylazetidin-3-yl)amino)-N-(2-hydroxy-3-(3-methyl-6,7-dihydrothieno[3,2-c]pyridin-5(4H)-yl)propyl)pyrimidine-4-carboxamide], the EC50 is less than 100 nM.

For `CC(=O)N1CCC(Nc2cc(C(=O)NC[C@H](O)CN3CCc4nn(C)cc4C3)ccn2)CC1` [Compound 3-53], the EC50 is more than 1000 nM.

With `CC(=O)N1CC(Nc2cc(C(=O)NC[C@H](O)CN3CCc4[nH]cnc4C3)ncn2)C1` [Compound 3-33, (S)-6-((1-acetylazetidin-3-yl)amino)-N-(3-(6,7-dihydro-1H-imidazo[4,5-c]pyridin-5(4H)-yl)-2-hydroxypropyl)pyrimidine-4-carboxamide], the EC50 is more than 1000 nM. With `CC(=O)N1CCC(Nc2cc(C(=O)NC[C@H](O)CN3CCc4nn(C)cc4C3)ncn2)CC1` [Compound 3-57], the EC50 is more than 1000 nM. With `O=C(NC[C@H](O)CN1CCc2[nH]cnc2C1)c1cc(NC2COC2)ncn1` [Compound 3-38, (S)—N-(3-(6,7-dihydro-1H-imidazo[4,5-c]pyridin-5(4H)-yl)-2-hydroxypropyl)-6-(oxetan-3-ylamino)pyrimidine-4-carboxamide], the EC50 was more than 1000 nM.

Consider `CC(=O)N1CCC(Nc2cc(C(=O)NC[C@H](O)CN3CCc4ccncc4C3)ncn2)CC1` [Compound 2-23, (S)-6-((1-acetylpiperidin-4-yl)amino)-N-(3-(3,4-dihydro-2,7-naphthyridin-2(1H)-yl)-2-hydroxypropyl)pyrimidine-4-carboxamide], for which the EC50 is more than 1000 nM.

On to `CC(=O)N1CCC(Nc2cc(C(=O)NC[C@H](O)CN3CCc4c(ncn4C)C3)ncn2)CC1` [Compound 3-35, (S)-6-((1-acetylpiperidin-4-yl)amino)-N-(2-hydroxy-3-(1-methyl-6,7-dihydro-1H-imidazo[4,5-c]pyridin-5(4H)-yl)propyl)pyrimidine-4-carboxamide], for which the concentration giving a half-maximal response (EC50) was more than 1000 nM. For the molecule `CC(=O)N1CCC(Nc2cc(C(=O)NC[C@H](O)CN3CCc4c(cnn4C)C3)ccn2)CC1` [Compound 3-52], the concentration giving a half-maximal response (EC50) was more than 1000 nM. Regarding `CC(=O)N1CCC(Nc2cc(C(=O)NC[C@H](O)CN3CCc4scnc4C3)ccn2)CC1` [Compound 1-30], the half-maximal effective concentration (EC50) lay in the range of 101 to 1000 nM. As for `O=C(NC[C@H](O)CN1CCc2[nH]nc(-c3ccccc3)c2C1)c1cc(NC2COC2)ncn1` [Compound 3-17, (S)—N-(2-hydroxy-3-(3-phenyl-6,7-dihydro-1H-pyrazolo[4,3-c]pyridin-5(4H)-yl)propyl)-6-(oxetan-3-ylamino)pyrimidine-4-carboxamide], the EC50 is more than 1000 nM. For the molecule `O=C(COc1cccc2cccnc12)NCC(O)CN1CCc2ncccc2C1` (stereo not drawn) [Compound 2-6, N-[2-hydroxy-3-(5,6,7,8-tetrahydro-1,6-naphthyridin-6-yl)propyl]-2-(quinolin-8-yloxy)acetamide], the EC50 was more than 1000 nM. Take `Cn1cc2c(n1)CCN(C[C@@H](O)CNC(=O)c1cc(NC3COC3)ncn1)C2` [Compound 3-27]: the half-maximal effective concentration (EC50) was more than 1000 nM. In the case of `CC(=O)N1CCC(Nc2cc(C(=O)NC[C@H](O)CN3CCc4sc(N)nc4C3)ncn2)CC1` [Compound 1-37], the EC50 was more than 1000 nM. On to `CC(=O)N1CC(Nc2cc(C(=O)NC[C@H](O)CN3CCc4cn[nH]c4C3)ncn2)C1` [Compound 3-44], for which the concentration giving a half-maximal response (EC50) is more than 1000 nM. As to `O=C(COc1cccc2cccnc12)NCC(O)CN1CCc2cccnc2C1` (stereo not drawn) [Compound 2-5, N-[2-hydroxy-3-(5,6,7,8-tetrahydro-1,7-naphthyridin-7-yl)propyl]-2-(quinolin-8-yloxy)acetamide], the EC50 is more than 1000 nM. In the case of `CC(=O)N1CCC(Nc2cc(C(=O)NC[C@H](O)CN3CCc4sc(C)nc4C3)ncn2)CC1` [Compound 1-36], the concentration giving a half-maximal response (EC50) is more than 1000 nM. On to `Cc1csc2c1CN(C[C@@H](O)CNC(=O)c1cc(NC3COC3)ncn1)CC2` [Compound 1-11, (S)—N-(2-hydroxy-3-(3-methyl-6,7-dihydrothieno[3,2-c]pyridin-5(4H)-yl)propyl)-6-(oxetan-3-ylamino)pyrimidine-4-carboxamide], for which the EC50 is less than 100 nM.

Turning to `CC(=O)N1CCC(Nc2cc(C(=O)NC[C@H](O)CN3CCc4oc(C)nc4C3)ncn2)CC1` [Compound 4-3, (S)-6-((1-acetylpiperidin-4-yl)amino)-N-(2-hydroxy-3-(2-methyl-6,7-dihydrooxazolo[4,5-c]pyridin-5(4H)-yl)propyl)pyrimidine-4-carboxamide], the EC50 was more than 1000 nM. Regarding `CC(=O)N1CCC(Nc2cc(C(=O)NC[C@H](O)CN3CCc4[nH]nc(-c5ccccc5)c4C3)ncn2)CC1` [Compound 3-12, (S)-6-((1-acetylpiperidin-4-yl)amino)-N-(2-hydroxy-3-(3-phenyl-6,7-dihydro-1H-pyrazolo[4,3-c]pyridin-5(4H)-yl)propyl)pyrimidine-4-carboxamide], the EC50 was more than 1000 nM. `CC(=O)N1CCC(Nc2cc(C(=O)NC[C@H](O)CN3CCc4[nH]cnc4C3)ccn2)CC1` [Compound 3-36, (S)-2-((1-acetylpiperidin-4-yl)amino)-N-(3-(6,7-dihydro-1H-imidazo[4,5-c]pyridin-5(4H)-yl)-2-hydroxypropyl)isonicotinamide]: the concentration giving a half-maximal response (EC50) was more than 1000 nM. Consider `CC(=O)N1CC(Nc2cc(C(=O)NC[C@H](O)CN3CCc4nc(N)sc4C3)ncn2)C1` [Compound 1-29], for which the 50% effective concentration (EC50) is more than 1000 nM. `Cn1cnc2c1CCN(C[C@@H](O)CNC(=O)c1cc(NC3COC3)ncn1)C2` [Compound 3-28]: the 50% effective concentration (EC50) was more than 1000 nM. As for `CC(=O)N1CCC(Nc2cc(C(=O)NC[C@H](O)CN3CCc4[nH]ncc4C3)ccn2)CC1` [Compound 3-21], the EC50 was more than 1000 nM. Turning to `CC(=O)N1CCC(Nc2cc(C(=O)NC[C@H](O)CN3CCc4sc(C)nc4C3)ccn2)CC1` [Compound 1-33], the EC50 is more than 1000 nM. On to `CC(=O)N1CCC(Nc2cc(C(=O)NC[C@H](O)CN3CCc4oc(C)nc4C3)ccn2)CC1` [Compound 4-4, (S)-2-((1-acetylpiperidin-4-yl)amino)-N-(2-hydroxy-3-(2-methyl-6,7-dihydrooxazolo[4,5-c]pyridin-5(4H)-yl)propyl)isonicotinamide], for which the concentration for a half-maximal effect (EC50) was more than 1000 nM. With `Nc1nc2c(s1)CN(C[C@@H](O)CNC(=O)c1cc(NC3COC3)ncn1)CC2` [Compound 1-23], the half-maximal effective concentration (EC50) was more than 1000 nM. Then `CC(=O)N1CC(Nc2cc(C(=O)NC[C@H](O)CN3CCc4oc(C)nc4C3)ncn2)C1` [Compound 4-2, (S)-6-((1-acetylazetidin-3-yl)amino)-N-(2-hydroxy-3-(2-methyl-6,7-dihydrooxazolo[4,5-c]pyridin-5(4H)-yl)propyl)pyrimidine-4-carboxamide], with more than 1000 nM.

Usually EC50 stands for the concentration needed to bring the measured effect to its halfway point.
